Test results published in patent US9938543B2, “Methods, reagents and cells for biosynthesizing glutarate methyl ester” (priority 2014, dated 2018).

Columns and labels:
Type in all cases: biochemical
[1] = test system: carboxylate reductase of SEQ ID NO: 3 (Mycobacterium smegmatis); test: Carboxylate reductase enzyme activity assay, glutarate methyl ester as substrate (NADPH consumption at 340 nm); conditions: 2 mM glutarate methyl ester, 1 mM NADPH, 1 mM ATP, pH 7.5, room temperature 20 min; enhanced by gene product of sfp; against empty vector control
Method: (§1) A nucleotide sequence encoding a His-tag was added to the genes from Mycobacterium marinum, Mycobacterium smegmatis, Segniliparus rugosus, Mycobacterium massiliense, and Segniliparus rotundus that encode the carboxylate reductases of SEQ ID NOs: 2-4, 6 and 7, respectively (GenBank Accession Nos. ACC40567.1, ABK71854.1, EFV11917.1, EIV11143.1, and ADG98140.1, respectively) (see FIG. 8) such that N-terminal HIS tagged carboxylate reductases could be produced. Each of the modified genes was cloned into a pET Duet expression vector alongside a sfp gene encoding a His-tagged phosphopantetheine transferase from Bacillus subtilis, both under control of the T7 promoter. Each expression vector was transformed into a BL21[DE3] E. coli host along with the expression vectors from Example 2. Each resulting recombinant E. coli strain was cultivated at 37° C. in a 250 mL shake flask culture containing 50 mL LB media and antibiotic selection pressure, with shaking at 230 rpm. Each culture was induced overnight at 37° C. using an auto-induction media.
(§2) The pellet from each induced shake flask culture was harvested via centrifugation. Each pellet was resuspended and lysed via sonication. The cell debris was separated from the supernatant via centrifugation. The carboxylate reductases and phosphopantetheine transferase were purified from the supernatant using Ni-affinity chromatography, diluted 10-fold into 50 mM HEPES buffer (pH=7.5) and concentrated via ultrafiltration.
(§3) The enzyme activity assay was performed in triplicate in a buffer composed of a final concentration of 50 mM HEPES buffer (pH=7.5), 2 mM glutarate methyl ester, 10 mM MgCl2, 1 mM ATP and 1 mM NADPH. The enzyme activity assay reaction was initiated by adding purified carboxylate reductase and phosphopantetheine transferase or the empty vector control to the assay buffer containing the glutarate methyl ester and then incubated at room temperature for 20 min. The consumption of NADPH was monitored by absorbance at 340 nm.

[2] = test system: carboxylate reductase of SEQ ID NO: 7 (Segniliparus rotundus); test: as above; conditions: 2 mM glutarate methyl ester, 1 mM NADPH, 1 mM ATP, pH 7.5, room temperature 20 min; enhanced by gene product of sfp; against empty vector control
Method: as §1, §2, §3

[3] = target: T1, carboxylate reductase of SEQ ID NO: 2 (Mycobacterium marinum) (Mycobacterium marinum, UniProt B2HN69); test: as above; conditions: 2 mM glutarate methyl ester, 1 mM NADPH, 1 mM ATP, pH 7.5, room temperature 20 min; enhanced by gene product of sfp; against empty vector control
T1 construct: His-tag (N); made in house; host or cells: E. coli BL21[DE3], pET Duet vector
Method: as §1, §2, §3

[4] = test system: carboxylate reductase of SEQ ID NO: 6 (Mycobacterium massiliense); test: as above; conditions: 2 mM glutarate methyl ester, 1 mM NADPH, 1 mM ATP, pH 7.5, room temperature 20 min; enhanced by gene product of sfp; against empty vector control
Method: as §1, §2, §3

[5] = target: T2, pimeloyl-[acp] methyl ester methylesterase of SEQ ID NO: 1 (Escherichia coli, UniProt P13001); test: Pimeloyl-[acp] methyl ester methylesterase enzyme activity assay, glutaryl-CoA methyl ester to glutaryl-CoA (LC-MS); conditions: 5 mM glutaryl-CoA methyl ester, 10 μM enzyme, 25 mM Tris.HCl pH 7.0, 30° C., 1 h
T2 construct: His-tag (C); made in house; host or cells: E. coli BL21[DE3], pET28b+ vector
Method: A sequence encoding an C-terminal His-tag was added to the gene from Escherichia coli encoding the pimeloyl-[acp] methyl ester methylesterase of SEQ ID NO: 1 (see FIG. 8) such that C-terminal HIS tagged pimeloyl-[acp] methyl ester methylesterase could be produced. The resulting modified gene was cloned into a pET28b+ expression vector under control of the T7 promoter and the expression vector was transformed into a BL21[DE3] E. coli host. The resulting recombinant E. coli strain was cultivated at 37° C. in a 500 mL shake flask culture containing 100 mL LB media and antibiotic selection pressure, with shaking at 230 rpm. Each culture was induced overnight at 18° C. using 0.3 mM IPTG.
The pellet from each induced shake flask culture was harvested via centrifugation. Each pellet was resuspended and lysed via sonication. The cell debris was separated from the supernatant via centrifugation. The pimeloyl-[acp] methyl ester methylesterase was purified from the supernatant using Ni-affinity chromatography, buffer exchanged and concentrated into 20 mM HEPES buffer (pH=7.5) via ultrafiltration and stored at 4° C.
Enzyme activity assays converting glutaryl-CoA methyl ester to glutaryl-CoA were performed in triplicate in a buffer composed of a final concentration of 25 mM Tris.HCl buffer (pH=7.0) and 5 [mM] glutaryl-CoA methyl ester. […] The formation of glutaryl-CoA was quantified via LC-MS.

T1 sequence (B2HN69 whole entry): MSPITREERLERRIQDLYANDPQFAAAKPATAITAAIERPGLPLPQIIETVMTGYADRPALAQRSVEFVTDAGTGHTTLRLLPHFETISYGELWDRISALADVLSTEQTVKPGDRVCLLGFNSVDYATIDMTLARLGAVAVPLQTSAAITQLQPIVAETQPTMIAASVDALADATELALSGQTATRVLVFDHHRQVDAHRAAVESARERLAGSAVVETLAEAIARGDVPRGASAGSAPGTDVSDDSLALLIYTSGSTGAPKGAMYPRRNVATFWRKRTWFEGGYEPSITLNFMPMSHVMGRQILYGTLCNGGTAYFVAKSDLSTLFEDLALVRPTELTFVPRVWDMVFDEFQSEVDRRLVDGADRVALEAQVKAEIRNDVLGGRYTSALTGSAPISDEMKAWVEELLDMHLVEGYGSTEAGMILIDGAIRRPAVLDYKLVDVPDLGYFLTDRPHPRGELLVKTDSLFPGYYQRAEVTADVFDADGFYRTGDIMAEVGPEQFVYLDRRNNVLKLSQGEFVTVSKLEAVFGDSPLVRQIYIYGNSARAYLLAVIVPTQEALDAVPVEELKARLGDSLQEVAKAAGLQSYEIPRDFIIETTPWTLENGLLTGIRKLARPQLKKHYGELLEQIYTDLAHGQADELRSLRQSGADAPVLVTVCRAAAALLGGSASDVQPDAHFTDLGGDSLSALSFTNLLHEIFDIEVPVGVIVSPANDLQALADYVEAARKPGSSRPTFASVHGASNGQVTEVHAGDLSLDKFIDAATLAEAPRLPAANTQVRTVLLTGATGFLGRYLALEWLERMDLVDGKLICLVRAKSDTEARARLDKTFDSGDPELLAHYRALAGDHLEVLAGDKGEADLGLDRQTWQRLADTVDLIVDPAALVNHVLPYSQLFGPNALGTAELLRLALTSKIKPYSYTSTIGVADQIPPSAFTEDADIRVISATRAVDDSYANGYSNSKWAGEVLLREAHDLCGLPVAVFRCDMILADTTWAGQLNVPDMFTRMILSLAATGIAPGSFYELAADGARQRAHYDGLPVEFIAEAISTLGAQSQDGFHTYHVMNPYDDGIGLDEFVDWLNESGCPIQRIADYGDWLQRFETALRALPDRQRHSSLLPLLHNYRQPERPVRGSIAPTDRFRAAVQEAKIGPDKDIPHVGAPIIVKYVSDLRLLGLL
T2 sequence (P13001 whole entry): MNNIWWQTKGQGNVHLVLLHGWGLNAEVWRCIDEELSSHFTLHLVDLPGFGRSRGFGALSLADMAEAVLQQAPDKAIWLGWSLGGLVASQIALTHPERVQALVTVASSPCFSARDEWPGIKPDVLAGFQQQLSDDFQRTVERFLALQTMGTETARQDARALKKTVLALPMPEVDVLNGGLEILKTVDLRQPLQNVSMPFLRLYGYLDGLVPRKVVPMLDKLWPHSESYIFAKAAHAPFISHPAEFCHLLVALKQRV

Structure (SMILES) | acceptance as substrate, forming glutarate semialdehyde methyl ester [1] | acceptance as substrate, forming glutarate semialdehyde methyl ester [2] | acceptance as substrate, forming glutarate semialdehyde methyl ester [3] | acceptance as substrate, forming glutarate semialdehyde methyl ester [4] | acceptance as substrate, forming glutaryl-CoA [5]
COC(=O)CCCC(=O)O [glutarate methyl ester] | accepted glutarate methyl ester as substrate | accepted glutarate methyl ester as substrate | accepted glutarate methyl ester as substrate | accepted glutarate methyl ester as substrate | –
COC(=O)CCCC(=O)SCCNC(=O)CCNC(=O)C(O)C(C)(C)COP(=O)(O)OP(=O)(O)OCC1OC(n2cnc3c(N)ncnc32)C(O)C1OP(=O)(O)O (centres unmarked) [glutaryl-CoA methyl ester] | – | – | – | – | accepted glutaryl-CoA methyl ester as substrate
